Assay [1] concerns Pseudomonas aeruginosa (ATCC 27853). The class given is cell-based. The text has this:
(§1) The bacterial strains for the antimicrobial assay were obtained from the ATCC (American Type Culture Collection, Manassas, VA, USA) and NCTC (National Collection of Type Cultures, Salisbury, UK). Gram-negative strains were Pseudomonas aeruginosa (ATCC 27853), Escherichia coli (ATCC 8739, ATCC 35218, and ATCC 25922), Salmonella enterica (ATCC 13076), Klebsiella pneumoniae (NCTC 13440), Acinetobacter baumannii (ATCC 17978) and the Gram-positive strains were Enterococcus faecalis (ATCC 29212), Listeria monocytogenes (ATCC 19111), and Staphylococcus aureus (HNCMO112011 and ATCC 25923).
(§2) Determination of antibacterial activity for the peptides was carried out by utilizing a minimum bactericidal concentration (MBC) bioassay. Synthesized peptides were dissolved in sterile water and used from 25 to 0.125 μM in 2-fold dilution series and incubated with ~10^7 log phase bacteria in Potassium-Phosphate Buffer (PPB, pH: 7.4) for three hours as described earlier. After that, 5 μl of each sample was placed on LB agar and the growth of bacteria was monitored after overnight incubation at 37 °C. The lowest concentration of the antimicrobial agents that completely eliminated viable bacteria was considered the minimal bactericidal concentration (MBC).

Assay [2] deals with Enterococcus faecalis (ATCC 29212). Type of assay: cell-based.
Text: as §1, §2

Assay [3] deals with Salmonella enterica (ATCC 13076). The class given is cell-based.
Text: as §1, §2

The subject of assay [4] is Staphylococcus aureus (HNCMO112011). The class given is cell-based.
Text: as §1, §2

For assay [5], the system named is Escherichia coli (ATCC 8739). The class given is cell-based.
Text: as §1, §2

Assay [6] deals with Listeria monocytogenes (ATCC 19111). Type of assay: cell-based.
Text: as §1, §2

In assay [7] the test system is tested bacteria (ESKAPE pathogens, Listeria monocytogenes, Salmonella enterica). Type of assay: cell-based.
Text: as §1, §2

The test system of assay [8] is Acinetobacter baumannii (ATCC 17978). The class given is cell-based.
Text: as §1, §2

Assay [9] has as its system Klebsiella pneumoniae (NCTC 13440). Type of assay: cell-based.
Text: as §1, §2

Assay [10] has as its system S. aureus (ATCC 25923). Type of assay: cell-based, Staphylococcus aureus. The note with it: ATCC 25923, 3 h, pH 7.4.
Text: as §1, §2

For assay [11], the system named is E. coli (ATCC 25922). The class given is cell-based, Escherichia coli. The note with it: ATCC 25922, 3 h, pH 7.4.
Text: as §1, §2

For assay [12], the system named is E. coli (ATCC 35218). The class given is cell-based, Escherichia coli. The note with it: ATCC 35218, 3 h, pH 7.4.
Text: as §1, §2

Setting [13] is: Enterococcus faecalis ATCC 29212, ~10^7 log phase bacteria, 3 h in potassium-phosphate buffer (PPB) pH 7.4, peptide 25 to 0.125 μM 2-fold series, 5 μl on LB agar, overnight 37 °C.
The mark [14] stands for this setting: Listeria monocytogenes ATCC 19111, ~10^7 log phase bacteria, 3 h in PPB pH 7.4, peptide 25 to 0.125 μM 2-fold series, plated on LB agar, overnight 37 °C.

In brackets after ≈: the same amount, converted by molar mass. Read-outs that look alike come from different tables or passages of the source. Non-standard residues stand in square brackets, D forms with d. Residues, ends and D or L forms follow the SMILES beside them. ξ: configuration not given here. ξTrp(7-aza) = NC(Cc1c[nH]c2ncccc12)C(=O)O

Take `CC[C@H](C)[C@H](NC(=O)[C@H](CCCCN)NC(=O)[C@H](Cc1ccccc1)NC(=O)[C@H](CC(C)C)NC(=O)[C@@H]1CCCN1C(=O)[C@H](CCCCN)NC(=O)[C@H](CCCCN)NC(=O)[C@H](CO)NC(=O)[C@@H](N)CCCCN)C(=O)N[C@@H](Cc1c[nH]c2ccccc12)C(=O)N[C@@H](CCCCN)C(=O)N[C@@H](CO)C(=O)N[C@H](C(=O)N[C@@H](CCC(=O)O)C(=O)N[C@@H](CC(N)=O)C(=O)N[C@H](C(=O)N[C@@H](CO)C(=O)N[C@H](C(=O)N[C@@H](CC(C)C)C(=O)NC(Cc1c[nH]c2ncccc12)C(=O)N[C@@H](Cc1ccc(O)cc1)C(=O)N[C@@H](CCCCN)C(N)=O)C(C)C)C(C)C)C(C)C` (some centres unmarked) [NCR169C17–38C12,17/S-20W^7-Aza I] (H-KSKKPLFKIWKSVENVSVL[ξTrp(7-aza)]YK-NH2; N-terminus assumed): the “Minimal bactericidal concentration (MBC) P. a.” value in assay [1] (ATCC 27853, 3 h, pH 7.4) was determined as 6.3 µM (≈ 17.1 µg/mL). Besides, in [2] (setting [13]), the “Minimal bactericidal concentration (MBC) E. f.” value was 25 µM (≈ 67.7 µg/mL). For the same molecule, in [3] (ATCC 13076, 3 h, pH 7.4), the “Minimal bactericidal concentration (MBC) S. e.” value came to 6.3 µM (≈ 17.1 µg/mL). Also, in assay [4] (HNCMO112011, 3 h, pH 7.4), the “Minimal bactericidal concentration (MBC) S. a.” value was 6.3 µM (≈ 17.1 µg/mL). Besides, the “Minimal bactericidal concentration (MBC) E. c.” value in assay [5] (ATCC 8739, 3 h, pH 7.4) was 3.1 µM (≈ 8.4 µg/mL). Also, in [6] (setting [14]), the “Minimal bactericidal concentration (MBC) L. m.” value is 25 µM (≈ 67.7 µg/mL). Moreover, the “MBC against most or all of the tested bacteria” value in assay [7] (3 h, pH 7.4) was determined as 6.3 µM. Further, the “Minimal bactericidal concentration (MBC) A. b.” value in [8] (ATCC 17978, 3 h, pH 7.4) was found to be 6.3 µM (≈ 17.1 µg/mL). Also, in assay [9] (NCTC 13440, 3 h, pH 7.4), the “Minimal bactericidal concentration (MBC) K. p.” value was found to be 6.3 µM (≈ 17.1 µg/mL).

On to `CC[C@H](C)[C@H](NC(=O)[C@H](CCCCN)NC(=O)[C@H](Cc1ccccc1)NC(=O)[C@H](CC(C)C)NC(=O)[C@@H]1CCCN1C(=O)[C@H](CCCCN)NC(=O)[C@H](CCCCN)NC(=O)[C@H](CO)NC(=O)[C@@H](N)CCCCN)C(=O)N[C@@H](Cc1c[nH]c2ccccc12)C(=O)N[C@@H](CCCCN)C(=O)N[C@@H](CO)C(=O)N[C@H](C(=O)N[C@@H](CCC(=O)O)C(=O)N[C@@H](CC(N)=O)C(=O)N[C@H](C(=O)N[C@@H](CO)C(=O)N[C@H](C(=O)N[C@@H](CC(C)C)C(=O)N[C@@H](Cc1c[nH]c2ccccc12)C(=O)N[C@@H](Cc1ccc(O)cc1)C(=O)N[C@@H](CCCCN)C(N)=O)C(C)C)C(C)C)C(C)C` [NCR169C17–38C12,17/S] (H-KSKKPLFKIWKSVENVSVLWYK-NH2), for which the “MBC S.a. ATTC 25923” value in assay [10] came out at 3.1 µM (≈ 8.39 µg/mL). For the same molecule, the “Minimal bactericidal concentration (MBC) P. a.” value in assay [1] (ATCC 27853, 3 h, pH 7.4) turned out to be 3.1 µM (≈ 8.39 µg/mL). In addition, in assay [2] (ATCC 29212, 3 h, pH 7.4), the “Minimal bactericidal concentration (MBC) E. f.” value worked out at 3.1 µM (≈ 8.39 µg/mL). In addition, the “Minimal bactericidal concentration (MBC) S. e.” value in assay [3] (ATCC 13076, 3 h, pH 7.4) stood at 1.6 µM (≈ 4.33 µg/mL). Also, the “Minimal bactericidal concentration (MBC) S. a.” value in [4] (HNCMO112011, 3 h, pH 7.4) turned out to be 1.6 µM (≈ 4.33 µg/mL). Also, in assay [5] (ATCC 8739, 3 h, pH 7.4), the “Minimal bactericidal concentration (MBC) E. c.” value amounted to 1.6 µM (≈ 4.33 µg/mL). Besides, in assay [6] (ATCC 19111, 3 h, pH 7.4), the “Minimal bactericidal concentration (MBC) L. m.” value was determined as 3.1 µM (≈ 8.39 µg/mL). In addition, in [8] (ATCC 17978, 3 h, pH 7.4), the “Minimal bactericidal concentration (MBC) A. b.” value stood at 1.6 µM (≈ 4.33 µg/mL). Besides, the “Minimal bactericidal concentration (MBC) K. p.” value in assay [9] (NCTC 13440, 3 h, pH 7.4) is 3.1 µM (≈ 8.39 µg/mL). Further, the “MBC E.c. ATTC 25922” value in assay [11] was 1.6 µM (≈ 4.33 µg/mL). The “MBC E.c. ATTC 35218” value in [12] turned out to be 3.1 µM (≈ 8.39 µg/mL).

For the molecule “KSKKPLFKIWKSVENVSVLW^5-MeOYK [NCR169C17–38C12,17/S-20W^5-MeO, NCR169C17–38C12,17/S analog with 5-methoxy tryptophan at position 20, forms not separated]”, the “Minimal bactericidal concentration (MBC) P. a.” value in [1] (Pseudomonas aeruginosa ATCC 27853, ~10^7 log phase bacteria, 3 h in PPB pH 7.4, peptide 25 to 0.125 μM 2-fold series, plated on LB agar, overnight 37 °C) amounted to 0.8 µM. In assay [2] (setting [13]), the “Minimal bactericidal concentration (MBC) E. f.” value was determined as 3.1 µM. The “Minimal bactericidal concentration (MBC) S. e.” value in assay [3] (Salmonella enterica ATCC 13076, ~10^7 log phase bacteria, 3 h in PPB pH 7.4, peptide 25 to 0.125 μM 2-fold series, plated on LB agar, overnight 37 °C) was 3.1 µM. For the same molecule, the “Minimal bactericidal concentration (MBC) S. a.” value in assay [4] (Staphylococcus aureus HNCMO112011, ~10^7 log phase bacteria, 3 h in PPB pH 7.4, peptide 25 to 0.125 μM 2-fold series, plated on LB agar, overnight 37 °C) worked out at 3.1 µM. For the same molecule, the “Minimal bactericidal concentration (MBC) E. c.” value in assay [5] (Escherichia coli ATCC 8739, ~10^7 log phase bacteria, 3 h in PPB pH 7.4, peptide 25 to 0.125 μM 2-fold series, plated on LB agar, overnight 37 °C) amounted to 3.1 µM. Besides, the “Minimal bactericidal concentration (MBC) L. m.” value in [6] (setting [14]) stood at 3.1 µM. In assay [7] (summary over the tested bacterial species, 3 h in PPB pH 7.4), the “MBC against most or all of the tested bacteria” value amounted to 3.1 µM. The “Minimal bactericidal concentration (MBC) A. b.” value in assay [8] (Acinetobacter baumannii ATCC 17978, ~10^7 log phase bacteria, 3 h in PPB pH 7.4, peptide 25 to 0.125 μM 2-fold series, plated on LB agar, overnight 37 °C) stood at 3.1 µM. Besides, the “Minimal bactericidal concentration (MBC) K. p.” value in assay [9] (Klebsiella pneumoniae NCTC 13440, ~10^7 log phase bacteria, 3 h in PPB pH 7.4, peptide 25 to 0.125 μM 2-fold series, plated on LB agar, overnight 37 °C) was 3.1 µM.

Values taken from publication PMC9917201, “Enhanced Antibacterial Activity of Substituted Derivatives of NCR169C Peptide” (International Journal of Molecular Sciences, 2023).
